From PubChem BioAssay AID1645848 come the findings set out here.

Converted amounts (≈) assume the structure as drawn.

The conditions of this data set: buffer; pH 7.4; 6.0 h; 150.0 µM.
As for `COCCNCc1ccc(-c2cc3nccc(Oc4ccc(NC(=O)C5(C(=O)Nc6ccc(F)cc6)CC5)cc4F)c3s2)nc1`, the solubility (kinetic) was below 1 µg/mL.
Then `COc1ccc(CN2CCN(C(=O)c3cc4c(s3)CCC4)CC2)cc1`, with above 53 µg/mL; and `CCOc1ccccc1CNS(=O)(=O)c1ccc(-c2cnc(C3CC3)o2)cc1`, with below 1 µg/mL.
Then `O=C(Nc1ccc(S(=O)(=O)Nc2nccs2)cc1)c1cc(-c2ccccc2)nc2ccccc12`, with 0.098 µg/mL (≈ 0.201 µM); and `Cc1ccc(S(=O)(=O)Nc2ccccc2C(=O)Nc2ccc(-c3ccccc3)cn2)cc1`, with below 1 µg/mL.
Then `O=C(Nc1ncccc1O)c1ccc(S(=O)(=O)Nc2ccccc2)cc1`, with above 55 µg/mL; and `Cc1ccc2nc(-c3cc(NC(=O)c4ccc5c(c4)OCCO5)ccc3Cl)oc2c1`, with below 1 µg/mL; and `CC(C)n1cc(-c2ccc(Oc3ccccc3)cc2)c2c(N)ncnc21`, with below 1 µg/mL.
Compound `CN1C(=O)c2ccccc2[S@](=O)c2ccc(C(=O)NCc3ccc(Br)cc3)cc21` had a solubility (kinetic) below 1 µg/mL.
The same measure for `COc1c2c(c3c(c1CCC(=O)O)OC(C)(C)C=C3)OC(C)(C)C=C2`: above 51 µg/mL; for `Cc1cc(-c2nnc3n2CCCCC3)c(C)n1-c1ccc(Br)cc1`: 27.4 µg/mL (≈ 71.1 µM); for `O=C(O)c1ccc(Nc2nc(-c3cc4ccccc4oc3=O)cs2)cc1O`: 11.7 µg/mL (≈ 30.7 µM).
Then `O=C(c1ccccc1)N1CCN(c2nc(-c3ccc(Br)cc3)cs2)CC1`, with below 1 µg/mL; and `CC(C)c1nc2oc3c(NCCN(C)C)ncnc3c2c2c1COC(C)(C)C2`, with above 57 µg/mL.
Then `Cc1ccc(S(=O)(=O)n2cc(C(=O)Nc3nc(-c4ccccc4)cs3)c3ccccc32)cc1`, with 2.2 µg/mL (≈ 4.65 µM); and `Cc1ccc(S(=O)(=O)Nc2cccc(C(=O)Nc3nc(-c4ccccc4)cs3)c2)cc1`, with below 1 µg/mL.
The compound `Cc1ccnc(NC(=S)N2CCN(c3cc(F)cc(Cl)c3)CC2)c1` yielded a kinetic solubility below 1 µg/mL.
The same measure for `Cn1cc(Nc2cnccc2C(=O)O)c2cccnc21`: 32.6 µg/mL (≈ 122 µM); for `Cc1cc(-c2nnc3n2CCCCC3)c(C)n1-c1cccc2ccccc12`: 15.6 µg/mL (≈ 43.8 µM); for `O=S(=O)(Nc1nccs1)c1ccc(NCc2ccccc2O)cc1`: above 53 µg/mL.
Then `Cc1c(C(=O)NN2CCCCC2)nn(-c2ccc(Cl)cc2Cl)c1-c1ccc(Cl)cc1`, with below 1 µg/mL.
The same measure for `COc1cccc(CNC(=O)c2ccc(N3CCCC3)c(NC(=O)Nc3ccccc3F)c2)c1`: below 1 µg/mL; for `N=c1c2c(ncn1-c1ccccc1)Oc1ccc3ccccc3c1C2c1ccc2c(c1)CCO2` (stereo not drawn): 2 µg/mL (≈ 4.5 µM); for `CCOc1ccc(NC(=O)c2ccc(F)c(S(=O)(=O)N(CC)Cc3ccccc3)c2)cc1`: below 1 µg/mL.
Regarding `OC1(CN2CCN(c3ccc(F)c(Cl)c3)CC2)CCCNC1` (stereo not drawn), the solubility (kinetic) was above 48 µg/mL.
Then `COc1ccc(Nc2cc(C)nc(-n3nc(C)cc3C)n2)cc1Cl`, with 3.58 µg/mL (≈ 10.4 µM); and `Cc1ccc(S(=O)(=O)Nc2cncc(C(=O)Nc3nc(-c4ccccc4)cs3)c2)cc1`, with below 1 µg/mL.
`O=C(O)CCNc1cc(N2CCc3ccccc3CC2)nc(-c2ccccn2)n1` came in with a kinetic solubility above 58 µg/mL.
The same measure for `CNc1nc2c(s1)C(c1ccc(Cl)cc1)CC(=O)N2` (stereo not drawn): 10.8 µg/mL (≈ 36.6 µM).
Then `Cn1nnnc1Sc1ncnc2sccc12`, with above 37 µg/mL.
The same measure for `Cn1c(=O)cc(C(=O)NC2CCCc3c2[nH]c2c(Cl)cccc32)c2ccccc21` (stereo not drawn): below 1 µg/mL; for `CC(NCc1ccc2c(c1)nc(NC(=O)c1ccc(-c3cn[nH]c3)s1)n2CC(C)(C)O)C(C)(C)C` (stereo not drawn): above 73 µg/mL.
For the compound `O=C(CCCN1CCC(O)(c2ccc(Cl)cc2)CC1)c1ccc(F)cc1`, the kinetic solubility was determined as 6.42 µg/mL (≈ 17.1 µM).

A word on the solubility (kinetic): it is the concentration staying in solution when a stock, usually in DMSO, is diluted into the medium.
